Like-named read-outs stand apart in the source and are kept apart here.
Columns and labels:
[1] = Hygroscopicity test by dynamic vapor sorption (DVS); assay type: physicochemical; conditions: for Degree of hygroscopicity: criteria of Table 12
Description: Dynamic vapor sorption (DVS) is a test method for analyzing the moisture sorption performance of a sample and recording the moisture sorption isotherm, and it determines the stability of a compound by identifying its sorption capacity for moisture. Methods for performing dynamic vapor sorption analysis on the crystals are well known to those skilled in the art. In the present invention, the hygroscopicity of the crystal forms A, C, and J of Kudinoside A is determined by using a dynamic vapor sorption instrument, and the specific measurement conditions are shown in Table 7.
About 10 mg of each of the crystal forms A, C, and J obtained in Examples 1-3 was tested for its hygroscopicity using a dynamic vapor sorption (DVS) instrument (test conditions: a temperature of 25° C. and a relative humidity of 0%-80%), and the hygroscopicity of each crystal form was judged using the criteria shown in Table 12 below. For the steps and the judgment criteria of the hygroscopicity test, reference is made to the General Requirement 9103-Guidelines for Hygroscopicity in Pharmacopoeia of the People's Republic of China 2020 (Volume IV).

[2] = Thermogravimetric analysis (TGA); assay type: physicochemical; conditions: 10 K/min, nitrogen
Source text: Thermogravimetric analysis, or TGA for short, refers to a thermal analysis method for measuring the relationship of the mass of a sample to be detected with the change of temperature or time at a programmed temperature, and it is used to study information related to the quality of the sample, such as thermal stability, components of intermediate products possibly generated, etc. It is often used in combination with other thermal analysis methods for comprehensive thermal analysis. Methods for performing thermogravimetric analysis on the crystals are well known to those skilled in the art. In the present invention, the crystal forms A, C, and J of Kudinoside A are determined by using a thermogravimetric analyzer, and the specific measurement conditions are shown in Table 6.

[3] = Conditions under which the crystal forms exist stably; assay type: physicochemical
[4] = Competition experiment of crystal form A and crystal form J in water suspension; assay type: physicochemical; conditions: equal mixture of crystal forms A and J suspended in water, stirred at room temperature 3 days; XRPD of wet and dry sample
Description: Firstly, an initial mixing sample was prepared: samples of the crystal form A and the crystal form J of Kudinoside A with the equivalent quantity were uniformly mixed, and sampling was carried out for XRPD detection.
Water was added to the sample to form a suspension, which was stirred at room temperature and then centrifuged 3 days later, and sampling was carried out for XRPD detection (wet sample); after drying under vacuum at 30° C., the sample was subjected to XRPD detection (dry sample).

[5] = DVS, 25° C., relative humidity 0%-80%
[6] = Accelerated test (40 ± 2° C., humidity 75% ± 5%), 0 month
[7] = Accelerated test (40 ± 2° C., humidity 75% ± 5%), 1 month
[8] = Accelerated test (40 ± 2° C., humidity 75% ± 5%), 3 month
[9] = Accelerated test (40 ± 2° C., humidity 75% ± 5%), 4 month
[10] = Accelerated test (40 ± 2° C., humidity 75% ± 5%), 5 month
[11] = Accelerated test (40 ± 2° C., humidity 75% ± 5%), 6 month
[12] = Long-term test 1 (25 ± 2° C., humidity 60% ± 5%), 0 month
[13] = Long-term test 1 (25 ± 2° C., humidity 60% ± 5%), 1 month
[14] = Long-term test 1 (25 ± 2° C., humidity 60% ± 5%), 3 month
[15] = Long-term test 1 (25 ± 2° C., humidity 60% ± 5%), 4 month
[16] = Long-term test 1 (25 ± 2° C., humidity 60% ± 5%), 6 month
[17] = Long-term test 1 (25 ± 2° C., humidity 60% ± 5%), 9 month
[18] = Long-term test 1 (25 ± 2° C., humidity 60% ± 5%), 12 month
[19] = Long-term test 1 (25 ± 2° C., humidity 60% ± 5%), 24 month
[20] = Long-term test 2 (5 ± 3° C.), 0 month
[21] = Long-term test 2 (5 ± 3° C.), 1 month
[22] = Long-term test 2 (5 ± 3° C.), 3 month
[23] = Long-term test 2 (5 ± 3° C.), 4 month
[24] = Long-term test 2 (5 ± 3° C.), 6 month
[25] = Long-term test 2 (5 ± 3° C.), 9 month
[26] = Long-term test 2 (5 ± 3° C.), 12 month
[27] = Long-term test 2 (5 ± 3° C.), 24 month

C[C@@H]1O[C@@H](O[C@H]2[C@H](O[C@H]3CC[C@]4(C)[C@H]5C[C@H](O)C6=C7[C@]8(CC[C@](C)(OC8=O)[C@@]7(C)O)CC[C@@]6(C)[C@]5(C)CC[C@H]4C3(C)C)OC[C@H](O)[C@@H]2O[C@@H]2O[C@H](CO)[C@@H](O)[C@H](O)[C@H]2O)[C@H](O)[C@H](O)[C@H]1O [crystal form A, Kudinoside A]
weight change when the relative humidity is in the range of 0%-80% ([1]; DVS graph (FIGS. 1d, 2d, 3d)): about 12% | hygroscopicity ([1]; DVS graph (FIGS. 1d, 2d, 3d), judgment criteria of Table 7): hygroscopic | Increase in mass (relative humidity: 0%-80%) [1, 5]: 12% | Degree of hygroscopicity [1, 5]: hygroscopic | Degree of hygroscopicity ([1]; DVS, 25° C., relative humidity 0%-80%, listed as A): Hygroscopic (The increase in mass is less than 15% but not less than 2%) | decomposition temperature [2]: about 318 °C | conditions under which the crystal form exists stably [3]: can exist stably as a dry powder at room temperature | crystal form conversion [4]: tends to convert to the crystal form J | Appearance [6]: White | Content of Kudinoside A [6]: 100.2 % of the labeled amount | Content of impurity F (Kudinoside D) [6]: 0.09% | Total content of impurities [6]: 0.09% | Appearance [7]: White | Content of Kudinoside A [7]: 101.7 % of the labeled amount | Content of impurity F (Kudinoside D) [7]: 0.17% | Total content of impurities [7]: 0.17% | Appearance [8]: White | Content of Kudinoside A [8]: 99.0 % of the labeled amount | Content of impurity F (Kudinoside D) [8]: 0.26% | Total content of impurities [8]: 0.43% | Appearance [9]: White | Content of Kudinoside A [9]: 98.0 % of the labeled amount | Content of impurity F (Kudinoside D) [9]: 0.29% | Total content of impurities [9]: 0.52% | Appearance [10]: White | Content of Kudinoside A [10]: 98.9 % of the labeled amount | Content of impurity F (Kudinoside D) [10]: 0.29% | Total content of impurities [10]: 0.60% | Appearance [11]: White | Content of Kudinoside A [11]: 98.4 % of the labeled amount | Content of impurity F (Kudinoside D) [11]: 0.29% | Total content of impurities [11]: 0.66% | Appearance [12]: White | Content of Kudinoside A [12]: 100.2 % of the labeled amount | Content of impurity F (Kudinoside D) [12]: 0.09% | Total content of impurities [12]: 0.09% | Appearance [13]: White | Content of Kudinoside A [13]: 101.4 % of the labeled amount | Content of impurity F (Kudinoside D) [13]: 0.09% | Total content of impurities [13]: 0.09% | Appearance [14]: White | Content of Kudinoside A [14]: 100.2 % of the labeled amount | Content of impurity F (Kudinoside D) [14]: 0.12% | Total content of impurities [14]: 0.12% | Appearance [15]: White | Content of Kudinoside A [15]: 99.2 % of the labeled amount | Content of impurity F (Kudinoside D) [15]: 0.13% | Total content of impurities [15]: 0.13% | Appearance [16]: White | Content of Kudinoside A [16]: 98.3 % of the labeled amount | Content of impurity F (Kudinoside D) [16]: 0.15% | Total content of impurities [16]: 0.15% | Appearance [17]: White | Content of Kudinoside A [17]: 98.8 % of the labeled amount | Content of impurity F (Kudinoside D) [17]: 0.19% | Total content of impurities [17]: 0.19% | Appearance [18]: White | Content of Kudinoside A [18]: 99.8 % of the labeled amount | Content of impurity F (Kudinoside D) [18]: 0.19% | Total content of impurities [18]: 0.19% | Appearance [19]: White | Content of Kudinoside A [19]: 100.2 % of the labeled amount | Content of impurity F (Kudinoside D) [19]: 0.21% | Total content of impurities [19]: 0.35% | Appearance [20]: White | Content of Kudinoside A [20]: 100.2 % of the labeled amount | Content of impurity F (Kudinoside D) [20]: 0.09% | Total content of impurities [20]: 0.09% | Appearance [21]: White | Content of Kudinoside A [21]: 101.8 % of the labeled amount | Content of impurity F (Kudinoside D) [21]: 0.08% | Total content of impurities [21]: 0.08% | Appearance [22]: White | Content of Kudinoside A [22]: 99.9 % of the labeled amount | Content of impurity F (Kudinoside D) [22]: 0.10% | Total content of impurities [22]: 0.10% | Appearance [23]: White | Content of Kudinoside A [23]: 99.8 % of the labeled amount | Content of impurity F (Kudinoside D) [23]: 0.08% | Total content of impurities [23]: 0.08% | Appearance [24]: White | Content of Kudinoside A [24]: 98.6 % of the labeled amount | Content of impurity F (Kudinoside D) [24]: 0.09% | Total content of impurities [24]: 0.09% | Appearance [25]: White | Content of Kudinoside A [25]: 99.2 % of the labeled amount | Content of impurity F (Kudinoside D) [25]: 0.09% | Total content of impurities [25]: 0.09% | Appearance [26]: White | Content of Kudinoside A [26]: 99.8 % of the labeled amount | Content of impurity F (Kudinoside D) [26]: 0.09% | Total content of impurities [26]: 0.09% | Appearance [27]: White | Content of Kudinoside A [27]: 101.3 % of the labeled amount | Content of impurity F (Kudinoside D) [27]: 0.08% | Total content of impurities [27]: 0.08%
